Here are results for three compounds from article PMC7479175, “Selection of Potent Inhibitors of Soluble Epoxide Hydrolase for Usage in Veterinary Medicine” (Frontiers in Veterinary Science, 2020).

Data set [1] addresses T1, Cat sEH (Felis catus, UniProt A0ABI7ZL20). The data set is described as follows: sEH inhibition potency (IC50), fluorescent assay with CMNPC, partially purified enzyme. In kind it is biochemical. Conditions: CMNPC ([S]final = 5 μM) as substrate; average ± standard deviation (n = 3).
Experimental: The sEH activity from the cat, dog and horse liver was further purified to eliminate contaminating esterase activity that could interfere with the screening fluorescent assay ([16]). The cytosolic fraction was loaded on a Q-Sepharose column (100 mL) equilibrated with sodium phosphate buffer (20 mM pH 7.4). After washing of the bound proteins, the sEH activity was eluted with a step gradient of NaCl (0–1 M). The fractions containing the sEH activity were pooled and concentrated using a Centriprep-30. The concentrates were aliquoted and flash frozen, then kept frozen at −80°C until usage. […] Protein concentration was quantified using the Pierce BCA assay (Pierce, Rockford, IL), using Fraction V bovine serum albumin (BSA) as the calibrating standard.
The IC50 values reported herein were determined using either a fluorescent based assay (CMNPC as substrate) for purified enzyme preparations or a radioactive based assay ([^3H]t-DPPO as substrate) for crude enzyme preparations ([20]). The fluorescent assay was used with the purified proteins. […] The substrate (CMNPC) was then added ([S]final = 5 μM). […] Assays were performed in triplicate.
The target in another data set is T2, Dog sEH (Canis lupus familiaris, UniProt A0A8I3NJL8).
T2 sequence (A0A8I3NJL8 1-556): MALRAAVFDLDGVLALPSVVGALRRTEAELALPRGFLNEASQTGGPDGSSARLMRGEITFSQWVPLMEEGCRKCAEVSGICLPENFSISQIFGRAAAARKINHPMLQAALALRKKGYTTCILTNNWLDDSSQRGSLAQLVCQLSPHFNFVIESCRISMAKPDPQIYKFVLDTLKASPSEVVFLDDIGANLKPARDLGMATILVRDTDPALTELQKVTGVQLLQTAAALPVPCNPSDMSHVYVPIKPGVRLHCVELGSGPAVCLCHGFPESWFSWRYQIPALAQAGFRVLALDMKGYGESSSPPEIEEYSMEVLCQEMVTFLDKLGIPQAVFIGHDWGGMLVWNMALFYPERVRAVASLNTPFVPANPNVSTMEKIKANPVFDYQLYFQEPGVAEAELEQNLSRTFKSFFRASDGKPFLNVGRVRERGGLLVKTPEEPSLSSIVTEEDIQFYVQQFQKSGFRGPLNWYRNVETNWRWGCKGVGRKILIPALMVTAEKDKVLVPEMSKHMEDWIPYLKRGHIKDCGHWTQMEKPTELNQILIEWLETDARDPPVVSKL
The data set is described as follows: Secondary screen (kinetic mode), PHOME substrate. In kind it is biochemical. As to conditions: [I] = 100 nM, secondary kinetic mode screening; read-out: Dog sEH Inhibition (%) S.

Data set [2] has as its target sEH activity from liver cytosol of Cow (Bos taurus, UniProt Q17QK4). The data set can be described thus: sEH inhibition potency (IC50), radioactive assay with [3H]t-DPPO, liver cytosol. The data set is classed as biochemical. Conditions: [3H]t-DPPO ([S]final = 5 μM) as substrate.
The target of data set [3] is T3, sEH activity from liver cytosol of Mouse (Mus musculus, UniProt P34914).
T3 construct: The radioactive fluorescent assay was used with the liver crude extracts; from tissue; host or cells: mouse liver cytosol (100,000 g supernatant)
T3 sequence (P34914 1-554): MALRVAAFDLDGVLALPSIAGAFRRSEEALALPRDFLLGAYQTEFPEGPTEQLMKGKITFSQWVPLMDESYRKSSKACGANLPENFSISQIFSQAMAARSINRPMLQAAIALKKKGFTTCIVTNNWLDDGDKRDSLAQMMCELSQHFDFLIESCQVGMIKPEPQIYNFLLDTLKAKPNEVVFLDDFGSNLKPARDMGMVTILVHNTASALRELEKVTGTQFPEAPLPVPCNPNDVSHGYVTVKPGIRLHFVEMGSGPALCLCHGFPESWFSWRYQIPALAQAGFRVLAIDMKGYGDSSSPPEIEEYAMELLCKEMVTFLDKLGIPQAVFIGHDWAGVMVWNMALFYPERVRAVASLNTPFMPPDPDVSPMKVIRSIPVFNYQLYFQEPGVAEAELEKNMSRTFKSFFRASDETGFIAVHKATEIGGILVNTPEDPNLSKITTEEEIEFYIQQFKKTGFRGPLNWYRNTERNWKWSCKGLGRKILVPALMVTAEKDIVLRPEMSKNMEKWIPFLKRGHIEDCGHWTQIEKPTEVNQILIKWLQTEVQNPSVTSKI
The data set is described as above. In kind it is biochemical. Conditions: [3H]t-DPPO ([S]final = 5 μM) as substrate.

Data set [4] deals with T1, Cat sEH. The data set can be described thus: Primary screen (end point) of the sEH inhibitor library, PHOME substrate. As to conditions: read-out: Cat sEH Inhibition (%) P. In kind it is biochemical. As to the method: (§1) Primary screening of the library was performed with an inhibitor concentration of 100 nM using PHOME as substrate ([22]). […] The plates were then mixed and incubated at 30°C for 5 min. Across each plate, 30 μL of the working substrate solution (270 μL of 5 mM PHOME solution in DMSO diluted with 3,680 μL of buffer) were added quickly to yield [S]final: 50 μM. Each plate was further incubated at room temperature (horse sEH: 60 min; cat sEH: 45 min; dog sEH: 30 min).

In another data set the target is Horse sEH (Equus caballus, UniProt F7C407). The description is as above. In kind it is biochemical. As to conditions: [I] = 100 nM, primary end-point screening; read-out: Horse sEH Inhibition (%) P. As to the method:
as §1

Data set [5] has as its target T1, Cat sEH. The data set is described as follows: Secondary screen (kinetic mode), PHOME substrate. In kind it is biochemical. As to conditions: read-out: Cat sEH Inhibition (%) S.
Data set [6] has as its system horses with chronic laminitis. Conditions: 0.1–1 mg/kg i.v., ref [11]–[13]; cited from earlier work.

Each structure is given as a SMILES string.

T1 sequence (A0ABI7ZL20 entry or part of it): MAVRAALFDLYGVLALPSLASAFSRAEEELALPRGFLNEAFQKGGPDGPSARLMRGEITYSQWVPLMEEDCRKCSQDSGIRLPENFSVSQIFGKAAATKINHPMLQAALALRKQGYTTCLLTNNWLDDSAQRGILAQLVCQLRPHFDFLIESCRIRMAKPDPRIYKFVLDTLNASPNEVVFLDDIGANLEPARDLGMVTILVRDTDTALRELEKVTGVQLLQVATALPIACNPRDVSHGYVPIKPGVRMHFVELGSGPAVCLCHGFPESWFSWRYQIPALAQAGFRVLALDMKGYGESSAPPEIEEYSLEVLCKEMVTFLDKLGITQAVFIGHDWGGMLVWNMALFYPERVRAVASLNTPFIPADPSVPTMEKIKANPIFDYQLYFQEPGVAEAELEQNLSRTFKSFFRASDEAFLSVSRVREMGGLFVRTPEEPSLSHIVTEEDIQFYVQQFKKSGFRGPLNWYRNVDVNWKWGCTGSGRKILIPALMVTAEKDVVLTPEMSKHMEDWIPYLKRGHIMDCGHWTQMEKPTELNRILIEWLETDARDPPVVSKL
Chain of Horse sEH (F7C407 entry or part of it): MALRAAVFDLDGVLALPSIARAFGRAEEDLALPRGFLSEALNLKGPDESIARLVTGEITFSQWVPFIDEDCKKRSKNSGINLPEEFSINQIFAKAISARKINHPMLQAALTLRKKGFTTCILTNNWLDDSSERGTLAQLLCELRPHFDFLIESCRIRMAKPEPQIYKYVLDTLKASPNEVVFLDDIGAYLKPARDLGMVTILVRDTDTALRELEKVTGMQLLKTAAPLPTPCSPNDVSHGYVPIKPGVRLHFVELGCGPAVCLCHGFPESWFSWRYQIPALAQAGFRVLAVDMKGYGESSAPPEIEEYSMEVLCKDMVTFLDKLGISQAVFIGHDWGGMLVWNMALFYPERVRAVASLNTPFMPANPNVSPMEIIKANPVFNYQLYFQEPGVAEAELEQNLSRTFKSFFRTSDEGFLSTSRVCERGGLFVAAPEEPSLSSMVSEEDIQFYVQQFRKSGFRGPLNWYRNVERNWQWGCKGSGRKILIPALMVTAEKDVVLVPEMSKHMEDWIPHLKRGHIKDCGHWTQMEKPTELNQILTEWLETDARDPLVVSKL
Chain of sEH activity from liver cytosol of Cow (Q17QK4 entry or part of it): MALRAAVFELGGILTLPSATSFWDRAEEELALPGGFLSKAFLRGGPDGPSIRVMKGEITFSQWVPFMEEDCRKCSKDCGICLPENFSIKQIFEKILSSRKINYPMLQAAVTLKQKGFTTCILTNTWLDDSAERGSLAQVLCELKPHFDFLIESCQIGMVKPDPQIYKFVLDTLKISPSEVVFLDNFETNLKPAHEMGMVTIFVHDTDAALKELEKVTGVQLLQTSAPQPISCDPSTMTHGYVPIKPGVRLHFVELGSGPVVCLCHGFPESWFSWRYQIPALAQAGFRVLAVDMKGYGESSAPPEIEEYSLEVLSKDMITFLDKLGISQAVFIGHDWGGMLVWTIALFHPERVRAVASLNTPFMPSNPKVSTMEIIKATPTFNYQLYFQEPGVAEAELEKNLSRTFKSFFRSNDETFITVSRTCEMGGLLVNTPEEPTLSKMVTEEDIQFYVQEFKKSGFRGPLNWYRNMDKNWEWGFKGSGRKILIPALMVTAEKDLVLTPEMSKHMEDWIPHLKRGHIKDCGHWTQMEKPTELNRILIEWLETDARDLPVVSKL

As a reminder, the IC50 is the concentration at which inhibition is half-maximal. As usually defined, the inhibition is the change of the read-out against control, counted positive when it falls. With `N#CNC(=O)CCCCCCCCCCCNC(=O)NC12CC3CC(CC(C3)C1)C2` [1,845], the values for the IC50 (on Cat sEH [1]; in data set [2]; in data set [3]) were 0.4 ± 0.01 nM, 11 nM and 17 nM, respectively. Besides, the inhibition at 0.1 µM on Dog sEH was determined as 83%; at Cat sEH [4], 101%; on Horse sEH, 100%; on Cat sEH [5], 104%.
`O=C(NCCCCOc1ccc(F)cc1)NC12CC3CC(CC(C3)C1)C2` [1,707]: the IC50 on Cat sEH [1] was 0.5 ± 0.02 nM; in data set [2], 7 nM; in data set [3], 10 nM. Further, the inhibition at 0.1 µM on Dog sEH turned out to be 83%; on Cat sEH [4], 94%; at Horse sEH, 101%; at Cat sEH [5], 99%.
With `O=C(Nc1ccc(OC(F)(F)F)cc1)N[C@H]1CC[C@H](Oc2ccc(C(=O)O)cc2)CC1` [1,728, trans-4-{4-[3-(4-trifluoromethoxy-phenyl)-ureido]-cyclohexyloxy}-benzoic acid], in data set [6], the adverse effects entry is recorded as “without observed adverse effects”; the reduction in pain result was “significant and rapid reduction in pain”.
